Where two headings read alike, the source gives them in different places. Marks after values point to notes of the source that are not given here.
What was measured:
GLP1R [1] = target: T1, GLP1R (Mus musculus, UniProt O35659); test: melanophore functional bioassay, mouse GLP1R; type: cell-based; settings: melanophores transfected with receptor
T1 construct: expressed in transfected cells; host or cells: melanophores
T1 sequence (O35659 22-463): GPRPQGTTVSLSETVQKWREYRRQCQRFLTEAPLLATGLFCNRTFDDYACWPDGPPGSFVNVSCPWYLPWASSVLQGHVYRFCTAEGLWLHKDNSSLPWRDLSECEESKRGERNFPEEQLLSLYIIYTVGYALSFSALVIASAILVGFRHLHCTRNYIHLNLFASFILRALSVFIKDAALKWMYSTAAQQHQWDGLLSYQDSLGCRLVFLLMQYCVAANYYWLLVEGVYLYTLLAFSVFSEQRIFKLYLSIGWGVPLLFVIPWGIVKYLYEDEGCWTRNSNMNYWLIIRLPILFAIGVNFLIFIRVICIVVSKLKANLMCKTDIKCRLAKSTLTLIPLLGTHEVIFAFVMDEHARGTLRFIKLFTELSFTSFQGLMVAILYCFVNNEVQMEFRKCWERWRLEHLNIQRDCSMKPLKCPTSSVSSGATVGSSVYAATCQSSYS
Description: (§1) The bioassay was performed essentially as described in Jayawickreme et al. (2005) Current Protocols in Pharmacology 12.9.1-12.9.16.

[2] = system: diet induced obese (DIO) C57BL/6 mice; test: Chronic obesity efficacy study in diet induced obese (DIO) mice, peptide-AlbudAbs alone and combined; type: in vivo, mouse
Description: Male diet induced obese (DIO) C57BL/6 mice (Taconic, Hudson, N.Y.) and lean C57BL/6 mice (Taconic, Hudson, N.Y.) were used for all experiments. DIO C57BL/6 mice were group housed and fed a high fat diet (45% fat by kcal) by the vendor from the time of weaning. DIO mice (40-50 g body weight) and age-matched controls were single-housed and maintained at constant temperature (approximately 22° C.) with 12 hr light/dark cycle (lights on from 5:00 AM to 5:00 PM). Mice were given ad libitum access to food (Research Diets D12451, 45% fat for DIO; Lab Diet 5001, 13.5% fat for lean) and water. All animal protocols were approved by the institutional animal care and use committee at GlaxoSmithKline in Research Triangle Park, N.C. The peptide-AlbudAbs were either prepared fresh daily or were prepared once and frozen at −70 deg C. in aliquots. For combination dosing, the drugs were mixed together so that only one injection would be required.
Chronic Obesity Efficacy Studies: DIO C56BL/6 mice and age-matched lean controls were habituated in house for 6 weeks before the start of the study. Animals were dosed every two days between 2-4 pm subcutaneously with a dose volume of 5 ml/kg over a period of 15 days.
A three day vehicle lead in period was used before the start of drug with the first day being vehicle and the second two days being mock injections. Baseline fat mass and lean mass measurements were taken 3-4 days before the start of drug and on day 15 using a QMR instrument (Echo Medical Systems, Houston, Tex.) Body weight measurements were taken every Monday, Wednesday, and Friday starting four days before the first drug dose, with the first measurement being used to randomize the animals. Food hopper weights were measured every weekday starting 4-6 days before the first drug dose, allowing for the calculation of food intake. Animals that created excessive food spillage were removed prior to the beginning of the study. During the study, excess food was removed from the cage and added to the food hopper weights for increased accuracy. Eight to ten animals (n=8-10) were used for the lean control group and eight animals (n=8) were used for all other treatment groups. Sixteen days after the start of drug treatment, animals were fasted for at least 4 hours before collection of whole blood, plasma, and serum samples via terminal cardiac exsanguinations. The whole blood was used to determine the % HbAlc, the plasma was used for a gastrointestinal hormone panel, and the serum was used to access multiple clinical chemistry parameters. Finally, major organs and tissues were collected (heart, kidney, liver, lung, stomach, duodenum, colon, pancreas, brown adipose, white adipose, carcass) on day 16 and fixed in 10% neutral buffered formalin for macroscopic and microscopic histological examination.

db/db C57BL/6J mice = test: Chronic diabetes efficacy study in db/db mice, peptide-AlbudAbs alone and combined; type: in vivo, mouse; settings: for decrease in glycosylated HbAlc: baseline vs day 16; for plasma insulin levels: day 16
Description: Male db/db C57BL/6J mice (Jackson Labs, Bar Harbor, Me.) were used for all experiments. The db/db mice (B6.Cg-m +/+ Leprdb/J) and controls were group-housed by the vendor. The db/db mice (10-12 weeks of age), and age-matched controls were shipped to GSK where they were single-housed and maintained at constant temperature (approximately 22° C.) with 12 hr light/dark cycle (lights on from 5:00 AM to 5:00 PM). Mice were given ad libitum access to food (LabDiet 5K67, 16% fat for db/db and their controls) and water. All animal protocols were approved by the institutional animal care and use committee at GlaxoSmithKline in Research Triangle Park, N.C. The peptide-AlbudAbs were prepared fresh daily. The correct dosing concentration of the drug was obtained by diluting the master stock using a citrate vehicle buffer comprised of 100 mM NaCl, 20 mM citric acid, pH 6.2 (filter sterilized). For combination dosing, the drugs were mixed together so that only one injection would be required.
Chronic Diabetes Efficacy Studies: The db/db mice and age-matched lean controls were habituated in house 2 weeks before the start of the study. Animals were dosed every two days between 2-4 pm subcutaneously with a dose volume of 5 ml/kg over a period of 15 days. A three day vehicle lead in period was used before the start of drug with the first day being vehicle and the second two days being mock injections. Baseline fat mass and lean mass measurements were taken 3 days before the start of drug and on day 15 using a QMR instrument (Echo Medical Systems, Houston, Tex.) Body weight measurements were taken every Monday, Wednesday, and Friday starting four days before the first drug dose. […] Food hopper weights were measured every weekday starting 4-6 days before the first drug dose, allowing for the calculation of food intake. Animals that created excessive food spillage were removed prior to the beginning of the study. During the study, excess food was removed from the cage and added to the food hopper weights for increased accuracy. Eight animals (n=8) were used for the lean control group and eight animals (n=8) were used for all other treatment groups. A pair-fed control was included in which the daily food intake for the combination ED80 group was calculated and that amount of food was given to the pair-fed group to eat the next day. Sixteen days after the start of drug treatment, animals were fasted for at least 4 hours before collection of whole blood, plasma, and serum samples via terminal cardiac exsanguinations. The whole blood was used to determine the % HbAlc, the plasma was used for a gastrointestinal hormone panel, and the serum was used to access multiple chemistries. Finally, major organs and tissues were collected (heart, kidney, liver, lung, stomach, duodenum, colon, pancreas, brown adipose, white adipose, carcass) on day 16 and fixed in 10% neutral buffered formalin for macroscopic and microscopic histological examination.

GLP1R [3] = target: T2, GLP1R (Homo sapiens, UniProt P43220); test: melanophore functional bioassay, human GLP1R; type: cell-based; parameters: expressed in transfected cells; host or cells: melanophores; settings: melanophores transfected with receptor
Description: as §1

GLP1R [4] = target: T2, GLP1R; test: GLP-1 receptor binding assay (GLP-1R BA), CHO 6CRE GLP1R luciferase reporter cells; type: cell-based; parameters: expressed in transfected cells; host or cells: CHO K1 (CHO 6CRE GLP1R cells)
Description: Fusions were buffer exchanged into 100 mM […], 20 mM citrate pH 6.2. Meanwhile,CHO 6CRE GLP1R cells (CHO K1 cells (obtainable from the American Type Tissue Collection, ATCC) stably transfected with 6 cAMP response element driving a luciferase reporter gene and also with the human GLP-1 receptor) were seeded at 2×10^5cells/mL in suspension media. Suspension culture was maintained for 24 hours. Cells were then diluted into 15 mM HEPES buffer (obtainable from Sigma), containing 2 mM L glutamine (2.5×10^5 cells/ml) and dispensed into 384-well plates containing 10 ul/well of the compound to be assayed. After the addition of assay control, plates were returned to the incubator for 3 h at 37° C. and 5% CO2. […] Plates were placed in the reader (Viewlux, Perkin Elmer) and pre-incubated for 5 minutes prior to reading the […] and plotting of results. Compound was assayed at a range of concentrations in the presence and absence of 10 uM albumin, allowing a dose response curve to be fitted with and without the albumin.

[5] = target: Human serum albumin (HSA) (Homo sapiens, UniProt P02768); type: binding
Description: (§2) The analysis was performed using a CM5 Biacore chip (carboxymethylated dextran matrix) that was coated with serum albumin. About 1000 resonance units (RUs) of each serum albumin to be tested (human, rat and mouse serum albumin) was immobilised in acetate buffer pH 5.5. Flow cell 1 of the Biocore AB was an uncoated, blocked negative control, flow cell 2 was coated with Human serum albumin (HSA) (815 RUs) flow cell 3 was coated with Rat serum albumin (RSA)(826RUs) and flow cell 4 was coated with Mouse serum albumin (MSA) (938 RUs). Each fusion molecule tested was expressed in mammalian tissue culture as described in the example above.
(§3) A range of concentrations of the fusion molecule were prepared (in the range 16 nM to 2 μM) by dilution into BIACORE HBS-EP buffer (0.01 M HEPES, pH7.4, 0.15 M NaCl, 3 mM EDTA, 0.005% surfactant P20) and flowed across the BIACORE chip.
(§4) Affinity (KD) was calculated from the BIACORE traces by fitting on-rate and off-rate curves to traces generated by concentrations of dAb in the region of the KD.

[6] = target: Mouse serum albumin (MSA) (Mus musculus, UniProt P07724); type: binding
Description: as §2, §3, §4

Rat serum albumin (RSA) = Rat serum albumin (RSA) (Rattus norvegicus, UniProt P02770); type: binding
Description: as §2, §3, §4

[7] = ED80 Doses: PYY-Alb 1.0 mg/kg, Exn-Alb 0.1 mg/kg, Combo
[8] = day 16, ED80 doses: Exendin-4-AlbudAb 0.1 mg/kg, Combo ED80
[9] = ED20 doses: PYY-AlbudAb 0.1 mg/kg, Exendin-4-AlbudAb 0.01 mg/kg, Combo ED20
[10] = read-out: GLP-1R BA (10 uM albumin) EC50 (pM) n = 2, presence of 10 uM albumin
[11] = read-out: GLP-1R BA EC50 (pM) n = 3, absence of albumin

T2 sequence (P43220 24-463): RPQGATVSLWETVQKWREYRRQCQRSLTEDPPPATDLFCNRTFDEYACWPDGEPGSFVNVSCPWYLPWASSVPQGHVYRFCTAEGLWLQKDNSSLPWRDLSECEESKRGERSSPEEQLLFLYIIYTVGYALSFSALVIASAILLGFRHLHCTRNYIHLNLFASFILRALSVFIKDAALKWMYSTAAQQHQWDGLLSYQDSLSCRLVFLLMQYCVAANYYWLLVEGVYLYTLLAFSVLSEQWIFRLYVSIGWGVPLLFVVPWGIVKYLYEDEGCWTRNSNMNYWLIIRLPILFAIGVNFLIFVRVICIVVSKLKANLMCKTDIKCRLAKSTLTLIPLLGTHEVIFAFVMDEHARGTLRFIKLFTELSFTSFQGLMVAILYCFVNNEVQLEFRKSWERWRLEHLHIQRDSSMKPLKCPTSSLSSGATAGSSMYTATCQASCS
Chain of Rat serum albumin (RSA) (P02770 25-608): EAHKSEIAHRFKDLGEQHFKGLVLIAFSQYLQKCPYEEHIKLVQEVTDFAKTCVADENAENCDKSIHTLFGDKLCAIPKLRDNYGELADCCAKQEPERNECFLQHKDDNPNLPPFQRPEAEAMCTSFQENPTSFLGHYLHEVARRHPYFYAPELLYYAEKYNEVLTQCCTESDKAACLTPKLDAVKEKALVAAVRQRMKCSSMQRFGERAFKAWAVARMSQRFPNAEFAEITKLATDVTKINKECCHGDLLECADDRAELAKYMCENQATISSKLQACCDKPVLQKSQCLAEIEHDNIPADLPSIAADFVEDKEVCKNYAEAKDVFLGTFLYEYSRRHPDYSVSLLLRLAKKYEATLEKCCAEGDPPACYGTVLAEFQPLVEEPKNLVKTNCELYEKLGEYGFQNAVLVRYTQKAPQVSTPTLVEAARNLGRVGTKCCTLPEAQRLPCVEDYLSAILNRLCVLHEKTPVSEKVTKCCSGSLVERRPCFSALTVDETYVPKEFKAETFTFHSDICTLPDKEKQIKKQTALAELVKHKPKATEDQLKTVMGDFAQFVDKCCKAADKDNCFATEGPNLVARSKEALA
Chain of Mouse serum albumin (MSA) (P07724 25-608): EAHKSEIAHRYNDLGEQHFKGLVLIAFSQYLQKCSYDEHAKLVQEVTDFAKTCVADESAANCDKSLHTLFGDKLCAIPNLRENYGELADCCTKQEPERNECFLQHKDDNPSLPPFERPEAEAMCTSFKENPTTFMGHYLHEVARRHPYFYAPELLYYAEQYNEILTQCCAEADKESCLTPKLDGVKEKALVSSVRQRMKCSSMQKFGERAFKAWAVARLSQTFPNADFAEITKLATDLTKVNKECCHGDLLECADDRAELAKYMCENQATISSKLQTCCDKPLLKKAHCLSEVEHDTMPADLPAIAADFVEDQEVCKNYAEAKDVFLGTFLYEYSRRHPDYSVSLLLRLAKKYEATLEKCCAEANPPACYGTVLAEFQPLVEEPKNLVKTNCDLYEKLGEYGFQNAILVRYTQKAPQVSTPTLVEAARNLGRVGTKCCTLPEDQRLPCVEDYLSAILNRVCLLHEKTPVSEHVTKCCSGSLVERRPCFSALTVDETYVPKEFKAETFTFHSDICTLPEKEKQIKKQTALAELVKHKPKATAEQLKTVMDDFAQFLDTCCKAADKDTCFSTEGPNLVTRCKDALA

DAT 0115: genetic fusion: exendin-4, (G4S)3 linker, 7h-14 AlbudAb, SEQ ID NO 2
pEC50 Mouse GLP1R (GLP1R [1]): 11.06
decrease in percent body fat (normalized to changes in vehicle controls) ([2]; 15 day treatment, ED20 doses: PYY-AlbudAb 0.1 mg/kg, Exendin-4-AlbudAb 0.01 mg/kg, Combo ED20): 0.6%
decrease in percent body fat ([2]; 15 day treatment, ED80 doses: PYY-AlbudAb 1.0 mg/kg, Exendin-4-AlbudAb 0.1 mg/kg, Combo ED80): 6.8%
Insulin % Change from DIO Vehicle ([2]; ED80 Doses: Exn-Alb 0.1 mg/kg, Combo): ↓-56%
ALT % Change from DIO Vehicle [2, 7]: ↓-57%*
AST % Change from DIO Vehicle [2, 7]: ↓-41%*
Creatinine % Change from DIO Vehicle [2, 7]: ↓-17%*
Glucose % Change from DIO Vehicle [2, 7]: ↓-27%*
Total Bilirubin % Change from DIO Vehicle [2, 7]: ↑21%*
Total Cholesterol % Change from DIO Vehicle [2, 7]: ↓-24%*
Ghrelin levels ([2]; Exendin-4-AlbudAb monotherapy groups, level approximately equal to the combination groups): elevated
decrease in body weight relative to vehicle ([2]; day 7, ED80 doses: PYY-AlbudAb 1.0 mg/kg, Exendin-4-AlbudAb 0.1 mg/kg, Combo ED80 = both mixed): 13.0%
inhibition of feeding / food intake ([2]; day 14, ED80 doses: PYY-AlbudAb 1.0 mg/kg, Exendin-4-AlbudAb 0.1 mg/kg, Combo ED80): 0.8%
decrease in body weight vs. vehicle ([2]; day 15, ED20 doses: PYY-AlbudAb 0.1 mg/kg, Exendin-4-AlbudAb 0.01 mg/kg, Combo ED20 = both mixed, s.c. every two days): 4.5%
decrease in body weight from vehicle ([2]; day 15, ED80 doses: PYY-AlbudAb 1.0 mg/kg, Exendin-4-AlbudAb 0.1 mg/kg, Combo ED80 = both mixed): 16.8%
microscopic change in brown adipose tissue (histopathology) ([2]; day 16, Combo ED20, Exendin-4-AlbudAb 0.01 mg/kg): decreased cytoplasmic lipid droplets
microscopic change in brown adipose tissue (histopathology) ([2]; day 16, Combo ED80, PYY-AlbudAb 1.0 mg/kg, Exendin-4-AlbudAb 0.1 mg/kg, Exendin-4 0.1 mg/kg): decreased cytoplasmic lipid droplets
Amylin levels in plasma [2, 8]: 163 pg/mL
Leptin levels in plasma [2, 8]: 31.4 ng/mL
fat mass lost ([2]; treatment period, ED20 doses: PYY-AlbudAb 0.1 mg/kg, Exendin-4-AlbudAb (dose not given), Combo ED20): 1.4 grams
body fat lost ([2]; treatment period, ED80 doses: PYY-AlbudAb 1.0 mg/kg, Exendin-4-AlbudAb (dose not given), Combo ED80): 5.7 grams
inhibition of weight gain (in words) (db/db C57BL/6J mice; PYY-AlbudAb 1.0 mg/kg, Exendin-4-AlbudAb 0.1 mg/kg, Combo ED80): effective at inhibiting weight gain
decrease in glycosylated HbAlc (db/db C57BL/6J mice; [9]): no significant changes
decrease in glycosylated HbAlc (db/db C57BL/6J mice; ED80 doses: PYY-AlbudAb 1.0 mg/kg, Exendin-4-AlbudAb 0.1 mg/kg, Combo ED80): 0.80%
decrease in body weight from vehicle (db/db C57BL/6J mice; day 15, ED80 doses: PYY-AlbudAb 1.0 mg/kg, Exendin-4-AlbudAb 0.1 mg/kg, Combo ED80): 9.2%
decrease in body weight relative to vehicle control (db/db C57BL/6J mice; day 15, PYY-AlbudAb 0.1 mg/kg, Exendin-4-AlbudAb 0.01 mg/kg): no significant effect
plasma insulin levels (db/db C57BL/6J mice; [9]): trends towards increases
plasma insulin levels (db/db C57BL/6J mice; ED80 doses: PYY-AlbudAb 1.0 mg/kg, Exendin-4-AlbudAb (dose not given), Combo ED80): 32036 pg/mL
pEC50 Human GLP1R (GLP1R [3]): 11.36
EC50 (GLP1R [4]; [10]): 38 pM
EC50 (GLP1R [4]; [11]): 8 pM

DAT 0117: Exendin 4, helical linker, DOM7h-14 fusion (Table 3), SEQ ID NO 4; Table 2 calls it 2xGLP-1 (7-37) A8G DOM7h-14 fusion
Kd [5]: 150 nM
Kd [6]: 130 nM
Kd (Rat serum albumin (RSA)): 700 nM
EC50 (GLP1R [4]; [10]): 15 pM
EC50 (GLP1R [4]; [11]): 4 pM

DAT 0116: Exendin 4 DOM7h-14 fusion, SEQ ID NO 3
EC50 (GLP1R [4]; [10]): 72 pM
EC50 (GLP1R [4]; [11]): 12 pM
